In ChEMBL document CHEMBL1158296, “(Hydroxymethyl)acylfulvene: an illudin derivative with superior antitumor properties” (J Nat Prod, 1996):
Calls of active or inactive are those of the source. The rule behind the calls is not given here.

What was measured:
HL-60 = experiment: Cytotoxicity against human HL60 cells after 48 hrs by trypan blue exclusion method; format: functional, cell-based
[1] = Antitumor activity against human MV522 cells xenografted BALB/c nu/nu mouse assessed as increase in life span at 10 mg/kg, iv administered three times per week for 3 weeks; format: functional
MV522 = experiment: Antitumor activity against human MV522 cells xenografted BALB/c nu/nu mouse assessed as induction of tumor regression at 10 mg/kg, iv administered three times per week for 3 weeks; format: functional, organism-based; design: dose 10 mg/kg
[2] = Homo sapiens, HL-60, 48 h, read-out: IC50

Structure (SMILES) | IC50 (HL-60; [2]) [nM] | also measured
COc1ccc(CC2=C(C)C=C3C(=O)[C@](C)(O)C4(CC4)C(C)=C32)cc1 | 1050 | –
CC1=C(CO)C2=C(C)C3(CC3)[C@@](C)(O)C(=O)C2=C1 [IROFULVEN] | 73 | Activity [1]: 150%; Activity (MV522): Active
CC1=C(CSc2ccc(C)cc2)C2=C(C)C3(CC3)[C@@](C)(O)C(=O)C2=C1 | – | IC50 (HL-60; hl-60): ND(Insoluble)
CC1=CC2=C(C)C3(CC3)[C@@](C)(O)C(=O)C2=C1 [ACYLFULVENE] | 415 | –
CC1=C2C(=O)C(C)(C)C=C2C(=O)[C@](C)(O)C12CC2 [DEHYDROILLUDIN M] | 296 | –
CC1=C(Cc2ccc(O)cc2)C2=C(C)C3(CC3)[C@@](C)(O)C(=O)C2=C1 | 380 | –
